Like-named read-outs stand apart in the source and are kept apart here.
Legend:
KOR = target: T1, KOR (Cavia porcellus, UniProt P41144); assay: Opioid receptor competitive binding assay, KOR (3H-U-69,593); parameters: species or system guinea pig; conditions: for Ki KOR/Ki MOR: Table 13, selectivity for MOR versus KOR
T1 construct: from tissue; host or cells: guinea pig cerebellum preparation
Description: (§1) For selected compounds, Ki for MOR, DOR, and KOR were determined according to the following procedure: Recombinant hMOR-1 membrane preps from stably transfected CHO cells and recombinant hDOR-1 membrane preps from stably transfected HEK-293 cells were purchased from Amersham Biosciences. Guinea pig cerebellum preparations were used for KOR assays.
(§2) Each microassay from an assay plate was filtered through an individual well of a Packard GF/B 96-well filter plate (glass fiber filter) to collect the membranes. Each well was washed twice with 200 μL of ice cold wash buffer (50 mM Tris, pH 7.4). The filter plate was allowed to dry overnight, the back was sealed, and Packard Bioscience Microscint PS scintillation fluid (75 μL) was added to each well, which was then counted for ^3H for 2 minutes using a Packard Bioscience TopCount scintillation counter plate reader.
(§3) Each compound was assayed at 8 concentrations, using half-log serial dilutions. Each concentration was tested in triplicate, and the ^3H cpm were averaged.
(§4) This triplicate experiment was repeated three times for the MOR and twice for the DOR and the KOR.

hMOR-1 [1] = target: T2, hMOR-1 (Homo sapiens, UniProt P35372); assay: MOR GTP-γ-S assay (MOR activation); format: biochemical; conditions: CHO membranes with hMOR-1; for % GTP-γ-35S bound: Table 15, compound 10 mM (footnote), percentage of DAMGO induced GTP-g-35S specific binding
T2 construct: purchased Amersham Biosciences; host or cells: stably transfected CHO cells (membrane preparation)
Description: MOR GTP-γ-S assay was run in the same 200 μL, 96 well format as the binding assay. Each microassay contained experimental compound, 0.04 nM GTP-γ-^35S, 9 μM GDP, and about 0.02 nM MOR (from stably transfected CHO cells), in assay buffer (50 mM Tris-HCl, 3 mM MgCl2, 0.2 mM EGTA, 100 mM NaCl, pH 7.4). The assays were incubated for two to three hours at room temperature, then filtered onto a filter plate. The plate was dried; scintillation fluid was added, and the wells were counted for ^35S. Blank assays were run to determine non-specific binding. […] The results were averaged; the non-specific counts were subtracted, and the resulting value was expressed as a percent of the value obtained for DAMGO. The error reported is two standard deviations from the mean of the quadruplicate experiment. The values were compared using one way Anova with Tukey's post-hoc analysis.

hMOR-1 [2] = target: T2, hMOR-1; assay: Opioid receptor competitive binding assay, MOR (3H-DAMGO); conditions: Ki MOR, 3H-DAMGO, hMOR-1 stably transfected into CHO cells
Description: as §1, §2, §3
(§5) This concentration was determined experimentally by scintillation counting an aliquot of the radioligand stock solution used in the assay.
(§6) Kd=the binding constant for the radioligand.
as §4

hDOR-1 = target: T3, hDOR-1 (Homo sapiens, UniProt P41143); assay: Opioid receptor competitive binding assay, DOR; conditions: for Ki DOR/Ki MOR: Table 13, selectivity for MOR versus DOR (footnote: 3H-DPDPE, hDOR-1)
T3 construct: purchased Amersham Biosciences; host or cells: stably transfected HEK-293 cells (membrane preparation)
Description: as §1, §2, §3, §5, §6, §4

[3] = Ki KOR, Table 10, 3H-U-69,593, guinea pig cerebellum preparation, errors two standard deviations
[4] = Table 4, errors 95% confidence interval
[5] = Ki DOR, Table 7, 3H-diprenorphine, hDOR-1 stably transfected into HEK-293 cells, errors two standard deviations

Compound	Ki (KOR; [3]) [nM]	Ki KOR/Ki MOR (KOR)	% GTP-γ-35S bound (hMOR-1 [1]) [%]	Ki (hMOR-1 [2]; [4]) [nM]	Ki (hDOR-1; [5]) [nM]	Ki DOR/Ki MOR (hDOR-1)	Ki (KOR; read-out: Ki KOR) [nM]	% GTP-γ-S bound (hMOR-1 [1]; Table 16, compound 10 μM, percentage of DAMGO induced GTP-γ-35S specific binding) [%]	Ki (hMOR-1 [2]; Table 5) [nM]	Ki (hDOR-1; read-out: Ki DOR) [nM]
Cc1cc(O)cc(C)c1CC(N)C(O)C/C=C/C(O)C(Cc1ccccc1)C(=O)NCCc1ccccc1 (single isomer, unassigned) [(S,S,S,R)-26, 2,6-Dihydroxy-1-(4-hydroxy-2,6-dimethyl-benzyl)-7-phenethylcarbamoyl-8-phenyl-oct-4-enyl-ammonium]	42 ± 29	140	40 ± 3	0.29 ± 0.06	99 ± 11	340				
Cc1cc(O)cc(C)c1CC(N)C(O)C/C=C/C(O)C(Cc1ccccc1)C(=O)NC(Cc1ccccc1)C(N)=O (single isomer, unassigned) [(S,S,R,R)-25, 7-(1-Carbamoyl-2-phenyl-ethylcarbamoyl)-2,6-dihydroxy-1-(4-hydroxy-2,6-dimethyl-benzyl)-8-phenyl-oct-4-enyl-ammonium]	21 ± 4	49	75 ± 11	0.42 ± 0.09	36 ± 6	86				
Cc1cc(O)cc(C)c1CC(N)C(O)C/C=C/C(O)C(Cc1ccccc1)C(=O)NCCc1ccccc1 (single isomer, unassigned) [(S,S,R,R)-26, 2,6-Dihydroxy-1-(4-hydroxy-2,6-dimethyl-benzyl)-7-phenethylcarbamoyl-8-phenyl-oct-4-enyl-ammonium]	64 ± 14	170	48 ± 9	0.37 ± 0.13	26 ± 3	70				
NC(=O)C(Cc1ccccc1)NC(=O)C(Cc1ccccc1)C(O)/C=C/C(O)CC(N)Cc1ccc(O)cc1 (single isomer, unassigned) [(S, R, R, S)-43, 7-(1-Carbamoyl-2-phenyl-ethylcarbamoyl)-3,6-dihydroxy-1-(4-hydroxy-benzyl)-8-phenyl-oct-4-enyl-ammonium]							1200 ± 600	48 ± 8	28 ± 6	2500 ± 3000
Cc1cc(O)cc(C)c1CC(N)C(O)C/C=C/C(O)C(Cc1ccccc1)C(=O)NC(Cc1ccccc1)C(N)=O (single isomer, unassigned) [(S,S,R,S)-25, 7-(1-Carbamoyl-2-phenyl-ethylcarbamoyl)-2,6-dihydroxy-1-(4-hydroxy-2,6-dimethyl-benzyl)-8-phenyl-oct-4-enyl-ammonium]	50 ± 16	41	32 ± 5	1.2 ± 0.4	230 ± 20	190				
Cc1cc(O)cc(C)c1CC(N)C(O)C/C=C/C(O)C(Cc1ccccc1)C(=O)NCCc1ccccc1 (single isomer, unassigned) [(S,S,R,S)-26, 2,6-Dihydroxy-1-(4-hydroxy-2,6-dimethyl-benzyl)-7-phenethylcarbamoyl-8-phenyl-oct-4-enyl-ammonium]	60 ± 32	94	52 ± 6	0.64 ± 0.09	120 ± 30	190				

Reference: patent publication US7223888B2, “Mu opioid receptor ligands: methods of use and synthesis” (President and Fellows of Harvard College, priority 2002, dated 2007)
